# Test results taken from US20190022092A1, “Therapeutic Combinations of a BTK Inhibitor and a GITR Binding Molecule, a 4-1BB Agonist, or an OX40 Agonist” (Acerta Pharma B.V., priority 2015, published 2019).
# What was measured:
# [1] = tested on: CD8+ T cell function (B lymphoblast targets); test: Cytotoxic T cell (CTL) assay; type: cell-based; settings: CTL generated 4 days with 500 nM inhibitor
# Description: Without being bound by any theory, CD8^+ T cells have two primary effector functions: (1) produce large amounts of IFN-γ (which activates macrophages), and (2) cytolytic activity. […] The targets were B lymphoblasts from lipopolysaccharide (LPS) treated cultures. The assay was performed by incubating different ratios of effectors:targets for 4 hours.
# Th17 and Treg cells = test: Th17 and Treg development of CD4+ T cells under skewing cytokines; type: cell-based
# Description: Enriched CD4^+ T cells are plated on 24-well culture dishes that have been precoated 2 hr with 250 μL anti-TCRβ (0.5 μg/mL) plus anti-CD28 (5 μg/mL) at 37° C. in PBS. The cells are then supplemented with media containing BTK inhibitors along with the skewing cytokines as indicated in the following. The Th17 and Treg cultures are grown for 4 days before analysis. The cells are maintained for an additional 3 days with skewing cytokines (Th17; 20 ng/mL IL-6, 0.5 ng/mL TGF-β, 5 μg/mL IL-4, 5 μg/mL IFN-γ and Treg; 0.5 ng/mL TGF-β, 5 μg/mL IL-4, 5 μg/mL IFN-γ) and are supplemented with IL2 as a growth factor.
# [2] = tested on: BCR; activation markers CD69 and CD86; test: In vivo potency: BCR stimulated with IgM, CD69 and CD86 expression by flow cytometry; settings: mice gavaged, sacrificed 3 hours post-dose, compared with ibrutinib
# Description: Mice were gavaged at increasing drug concentration and sacrificed at one time point (3 hours post-dose). BCR is stimulated with IgM and the expression of activation markers CD69 and CD86 are monitored by flow cytometry to determine EC50 values.
# [3] = In vitro metabolism in hepatocytes with 14C-labeled drug; type: in vitro ADME, and human; settings: mouse, rat, dog, rabbit, monkey, human hepatocytes
# BTK = target: T1, BTK (Mus musculus, UniProt P35991); test: Molecular probe assay of BTK occupancy in MDSCs of tumor bearing PDA mice; type: in vivo; settings: 15 mg/kg BID, Day 8, 4 hours post dose
# T1 construct: endogenous in cells; host or cells: granulocytic and monocytic MDSCs from tumor-bearing PDA mice
# Text: A molecular probe assay was used to calculate the percent irreversible occupancy of total BTK.
# [4] = tested on: NK cells co-cultured with antibody-coated DHL-4 or HER18 target cells; test: NK cell lytic granule release (CD107a) by flow cytometry; type: cell-based, human; settings: 1 μM; HER18 targets, trastuzumab 10 μg/mL
# Description: Prior to assay, HER18 cells were harvested using trypsin-EDTA, washed with phosphate-buffered saline (PBS) containing 5% serum and viable cells were counted. For culture of primary target cells, peripheral blood from CLL patients was subject to density centrifugation to obtain peripheral blood mononuclear cells (PBMC). Cell preparations were washed and then subject to positive selection of CD5^+CD19^+ CLL cells using magnetic beads (MACS, Miltenyi Biotech). Cell preparations were used fresh after selection. NK cells from CLL patients and healthy volunteers were enriched from peripheral blood collected in sodium citrate anticoagulant tubes and then subject to density centrifugation. Removal of non NK cells was performed using negative selection by MACS separation. […]
# Lytic granule release was determined as follows. […] Degranulation was evaluated via by flow cytometery by externalization of CD107a, a protein normally present on the inner leaflet of lytic granules, and gating on NK cells (CD3-CD16^+ lymphocytes). The percentage of CD107a positive NK cells was quantified by comparison with a negative control (isotype control, unstained cells/FMO). Control cultures (NK cells cultured without target cells, or NK, target cell co-cultures in the absence of appropriate monoclonal antibody) were also evaluated; all experiments were performed in triplicate.
# [5] = tested on: GPVI platelet aggregation; test: GPVI platelet aggregation studies; type: cell-based; settings: read-out: IC50, GPVI platelet aggregation
# [6] = tested on: NK cell lysis of primary CLL cells; test: Rituximab ADCC 51Cr release assay, primary autologous CLL targets; type: cell-based, human; settings: 1 μM; E:T 25:1
# Text: Cell culture conditions were as follows. […] The HER18 cells were maintained in DEM supplemented with fetal bovine serum, penicillin-streptomycin and. Prior to assay, HER18 cells were harvested using trypsin-EDTA, washed with phosphate-buffered saline (PBS) containing 5% serum and viable cells were counted. For culture of primary target cells, peripheral blood from CLL patients was subject to density centrifugation to obtain peripheral blood mononuclear cells (PBMC). Cell preparations were washed and then subject to positive selection of CD5^+CD19^+ CLL cells using magnetic beads (MACS, Miltenyi Biotech). Cell preparations were used fresh after selection. NK cells from CLL patients and healthy volunteers were enriched from peripheral blood collected in sodium citrate anticoagulant tubes and then subject to density centrifugation. Removal of non NK cells was performed using negative selection by MACS separation. Freshly isolated NK cells were washed three times, enumerated, and then used immediately for ADCC assays.
# ADCC assays were performed as follows. Briefly, target cells (Raji or primary CLL) were labeled by incubation at 37° C. with 100 μCi ^51Cr for 4 hours prior to co-culture with NK cells. […] Supernatants were harvested and ^51Cr release was measured by liquid scintillation counting. […]
# NSCLC (KrasLA2) = test: KrasLA2 genetic tumor model of NSCLC; type: in vivo; settings: KrasLA2 mice, 15 mg/kg
# Text: The model is designed to have sporadic expression in single cells of G12D mutant Kras off its own promoter triggered by spontaneous intrachromosomal recombination. Johnson, et al., Nature 2001, 410, 1111-16. While the mutant Kras protein is expressed in a few cells in all tissues, tumor development is seen only in the lung at high penetrance.
# [7] = GLP functional observation battery; type: in vivo; settings: rats, doses through 300 mg/kg
# Text: Formula (2) was well tolerated in standard in vivo Good Laboratory Practices (GLP) studies of pharmacologic safety.
# CD8+ T cell [8] = test: IFN-γ level measurements for CD8+ T cell function; type: cell-based; settings: relative to vehicle
# Text: FIG. 39 illustrates the results of IFN-γ level measurements for CD8^+ T cell function.
# CLL = test: Clinical study of Formula (2) in CLL (ALC, SPD, PFS, immune cells, apoptosis, chemokines); settings: CLL patients, relative to ibrutinib (Byrd et al. 2013)
# Description: Trendlines are shown for % change in MDSC (monocytic) level and % change in NK cell level.
# CYP3A4 = CYP3A4 (Homo sapiens, UniProt P08684); test: In vitro loss of parent drug as catalyzed by CYPs; type: in vitro ADME
# CD8+ T cell [9] = test: Cytotoxicity assay for CD8+ T cell function; type: cell-based; settings: relative to vehicle
# Text: FIG. 38 illustrates the results of the cytotoxicity assay for CD8^+ T cell function.
# T1 sequence (P35991 whole entry): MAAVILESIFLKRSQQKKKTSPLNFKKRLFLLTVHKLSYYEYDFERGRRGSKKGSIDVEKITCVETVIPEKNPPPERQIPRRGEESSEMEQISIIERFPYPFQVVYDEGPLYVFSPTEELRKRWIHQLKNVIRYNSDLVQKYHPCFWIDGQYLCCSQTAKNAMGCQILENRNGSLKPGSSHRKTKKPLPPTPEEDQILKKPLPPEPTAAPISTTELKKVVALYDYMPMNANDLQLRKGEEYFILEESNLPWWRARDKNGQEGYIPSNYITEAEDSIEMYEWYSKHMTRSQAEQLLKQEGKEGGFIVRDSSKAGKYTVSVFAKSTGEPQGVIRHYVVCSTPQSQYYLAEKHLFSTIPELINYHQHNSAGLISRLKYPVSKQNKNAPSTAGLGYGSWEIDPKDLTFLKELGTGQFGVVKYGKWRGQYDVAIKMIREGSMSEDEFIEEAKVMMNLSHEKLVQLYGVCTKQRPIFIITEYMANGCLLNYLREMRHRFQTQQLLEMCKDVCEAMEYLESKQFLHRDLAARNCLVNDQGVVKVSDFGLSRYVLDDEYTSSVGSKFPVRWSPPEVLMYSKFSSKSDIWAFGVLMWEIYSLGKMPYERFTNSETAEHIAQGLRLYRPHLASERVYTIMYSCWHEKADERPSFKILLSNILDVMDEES
# CYP3A4, sequence (P08684 whole entry): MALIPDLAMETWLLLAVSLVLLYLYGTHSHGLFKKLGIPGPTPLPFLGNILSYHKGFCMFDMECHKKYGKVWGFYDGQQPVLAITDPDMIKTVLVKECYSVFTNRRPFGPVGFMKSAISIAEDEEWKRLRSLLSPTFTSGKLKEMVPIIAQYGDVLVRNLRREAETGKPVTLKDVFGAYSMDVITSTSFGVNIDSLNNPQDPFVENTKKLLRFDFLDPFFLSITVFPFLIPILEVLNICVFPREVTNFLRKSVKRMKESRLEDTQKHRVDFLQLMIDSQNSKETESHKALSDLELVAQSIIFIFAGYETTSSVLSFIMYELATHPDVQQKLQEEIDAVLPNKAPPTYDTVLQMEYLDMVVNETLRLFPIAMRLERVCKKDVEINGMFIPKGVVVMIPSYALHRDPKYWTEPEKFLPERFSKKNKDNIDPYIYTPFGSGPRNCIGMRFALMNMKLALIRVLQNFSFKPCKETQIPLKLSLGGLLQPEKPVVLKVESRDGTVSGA
compound,measurement,setting,value
"CC#CC(=O)N1CCC[C@H]1c1nc(-c2ccc(C(=O)Nc3ccccn3)cc2)c2c(N)nccn12 [Formula (2), (S)-4-(8-amino-3-(1-(but-2-ynoyl)pyrrolidin-2-yl)imidazo[1,5-a]pyrazin-1-yl)-N-(pyridin-2-yl)benzamide]",CD8+ T cell function as % cytotoxicity,[1],no effect
same,Th17 development,Th17 and Treg cells,no adverse effect
same,Treg development,Th17 and Treg cells,no adverse effect
same,inhibition of expression of activation markers CD69 and CD86,[2],more potent at inhibiting expression of activation makers than Formula (10) (ibrutinib)
same,metabolites in hepatocytes,[3],two mono-oxidized metabolites and a glutathione conjugate
same,irreversible BTK occupancy in granulocytic and monocytic MDSCs,BTK,Complete BTK occupancy
same,inhibition of trastuzumab-stimulated NK cell degranulation,[4],no inhibitory effect
same,IC50,[5],1150 nM
same,"effect on rituximab-mediated ADCC, primary CLL samples (autologous)",[6],not inhibited
same,tumor volumes versus vehicle,NSCLC (KrasLA2),significant decrease
same,"functional observation battery: neurobehavioral effects, body temperature",[7],no adverse effects
same,CD8+ T cell function as IFN-γ level,CD8+ T cell [8],no effect on CD8^+ T cell function as measured by IFN-γ level relative to vehicle
same,absolute lymphocyte count (ALC),CLL,much smaller relative increase and much faster decrease in absolute lymphocyte count (ALC)
same,CYP responsible for metabolism,CYP3A4,metabolized by CYP3A4
same,CD8+ T cell function as % cytotoxicity,CD8+ T cell [9],no effect on CD8^+ T cell function as measured by % cytotoxicity relative to vehicle
